For assay [1], the target named is T1, Nicotinamide N-methyltransferase (Mus musculus, UniProt O55239).
T1 sequence (O55239 whole entry): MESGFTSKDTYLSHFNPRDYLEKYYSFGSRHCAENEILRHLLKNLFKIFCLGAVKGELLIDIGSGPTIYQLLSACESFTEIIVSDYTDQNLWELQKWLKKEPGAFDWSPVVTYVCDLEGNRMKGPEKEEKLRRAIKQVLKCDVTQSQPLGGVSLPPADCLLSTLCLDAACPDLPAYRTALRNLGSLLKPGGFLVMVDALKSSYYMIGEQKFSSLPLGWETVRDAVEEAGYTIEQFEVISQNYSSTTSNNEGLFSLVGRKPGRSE
The experiment in a line: Inhibition of mouse recombinant NNMT using nicotinamide and SAM as substrate assessed as reduction in 1-methyl-nicotinamide formation incubated for 2 hrs by RapidFire Mass spectroscopy.

Assay [2] has as its target T2, Nicotinamide N-methyltransferase (Homo sapiens, UniProt P40261).
T2 sequence (P40261 whole entry): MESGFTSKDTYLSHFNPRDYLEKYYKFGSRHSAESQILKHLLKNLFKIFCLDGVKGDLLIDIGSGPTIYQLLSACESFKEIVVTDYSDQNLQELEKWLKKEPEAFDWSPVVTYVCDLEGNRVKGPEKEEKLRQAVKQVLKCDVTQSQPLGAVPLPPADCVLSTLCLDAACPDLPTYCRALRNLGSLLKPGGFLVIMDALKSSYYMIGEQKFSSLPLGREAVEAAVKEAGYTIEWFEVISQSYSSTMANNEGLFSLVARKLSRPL
The experiment in a line: Inhibition of human recombinant NNMT using nicotinamide and SAM as substrate assessed as reduction in 1-methyl-nicotinamide formation incubated for 22 to 24 hrs by RapidFire Mass spectroscopy.

Assay [3] addresses T1, Nicotinamide N-methyltransferase. The experiment in a line: Inhibition of mouse recombinant NNMT using nicotinamide and SAM as substrate assessed as reduction in 1-methyl-nicotinamide formation incubated for 22 to 24 hrs by RapidFire Mass spectroscopy.

Experimental findings from ChEMBL document CHEMBL4808207, “Macrocyclic Peptides as a Novel Class of NNMT Inhibitors: A SAR Study Aimed at Inhibitory Activity in the Cell” (ACS Med Chem Lett, 2021) are described below.

pIC50: −log10 of the molar value. Bridge positions count the residues as written; N and C are the ends. Square brackets hold non-standard residues; d marks the D form. Peptide text beside a SMILES is read from it. Phe(4-CONH2) = NC(=O)c1ccc(C[C@H](N)C(=O)O)cc1; NMeY = CN[C@@H](Cc1ccc(O)cc1)C(=O)O; NMeF = CN[C@@H](Cc1ccccc1)C(=O)O; 3Pal = N[C@@H](Cc1cccnc1)C(=O)O; Tic = O=C(O)[C@@H]1Cc2ccccc2CN1 A value given as a limit tells only on which side of the number the result lay.

In the case of `CC[C@H](C)[C@@H]1NC(=O)[C@H](CC(C)C)NC(=O)[C@@H]2CCCN2C(=O)[C@H](Cc2ccccc2)NC(=O)CSC[C@@H](C(N)=O)NC(=O)CNC(=O)[C@H](CCCCN)NC(=O)[C@H](CCCNC(=N)N)NC(=O)[C@@H]2CCCN2C(=O)[C@H](Cc2ccccc2)NC1=O` ({CH2CO}-FPLIFPRKGC-NH2; thioether N-10), the negative-log IC50 (pIC50) – broadly, the negative decadic logarithm of the IC50, by convention in mol/L – in assay [1] is < 4.52. Consider `CC[C@H](C)[C@@H]1NC(=O)[C@H](CC(C)C)NC(=O)[C@@H]2CCCN2C(=O)[C@H](Cc2ccccc2)NC(=O)CSC[C@@H](C(=O)NCC(N)=O)NC(=O)CNC(=O)[C@H](CCCCN)NC(=O)[C@H](CCCNC(=N)N)NC(=O)[C@@H]2CCCN2C(=O)[C@H](Cc2ccccc2)NC1=O` ({CH2CO}-FPLIFPRKGCG-NH2; thioether N-10), for which the negative logarithm of the IC50 (pIC50) in assay [1] is 6.61. Regarding `CN1C(=O)[C@@H]2CCCN2C(=O)[C@H](Cc2ccccc2)NC(=O)CSC[C@@H](C(N)=O)NC(=O)[C@H](Cc2ccc(C(N)=O)cc2)NC(=O)[C@@H]2Cc3ccccc3CN2C(=O)[C@@H]2CCCN2C(=O)[C@H](CCCNC(=N)N)NC(=O)[C@@H]1Cc1ccc(O)cc1` ({CH2CO}-FP[NMeY]RP[Tic][Phe(4-CONH2)]C-NH2; thioether N-8), the pIC50 in assay [2] and in assay [3] was < 4.52 throughout.

In the case of `CN1C(=O)CSC[C@@H](C(N)=O)NC(=O)[C@H](Cc2ccc(C(N)=O)cc2)NC(=O)[C@@H]2Cc3ccccc3CN2C(=O)[C@@H]2CCCN2C(=O)[C@H](Cc2c[nH]cn2)NC(=O)[C@H](Cc2ccc(O)cc2)NC(=O)[C@@H]2CCCN2C(=O)[C@@H]1Cc1ccccc1` ({CH2CO}-[NMeF]PYHP[Tic][Phe(4-CONH2)]C-NH2; thioether N-8), the pIC50 in assay [2] and in assay [3] was < 4.00 throughout.

With `CN1C(=O)CSC[C@@H](C(N)=O)NC(=O)[C@H](Cc2ccc(C(N)=O)cc2)NC(=O)[C@@H]2Cc3ccccc3CN2C(=O)[C@@H]2CCCN2C(=O)[C@H](Cc2cccnc2)NC(=O)[C@H](Cc2ccc(O)cc2)NC(=O)[C@@H]2CCCN2C(=O)[C@@H]1Cc1ccccc1` ({CH2CO}-[NMeF]PY[3Pal]P[Tic][Phe(4-CONH2)]C-NH2; thioether N-8), the negative logarithm of the IC50 (pIC50) in assay [2] and in assay [3] was < 4.00 each time.
